Results published in PubChem BioAssay AID328 (DTP/NCI, 2004).
Several values for one entry are separate records, joined by “and”; a condition that tells them apart may be missing. Identical values can stand only once. Toxic doses and inconclusive results are not listed.

System: BDF1 mice, P388 leukemia ip, median survival T/C
Assay: NCI In Vivo Anticancer Drug Screen. Data for tumor model P388 Leukemia (intraperitoneal) in B6D2F1 (BDF1) mice
Conditions: endpoint: median survival time, higher = longer survival
In short: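 Vehicle-dosed animals serve as the reference; survival of compound-dosed, tumour-implanted mice is divided by it.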

[1] = dose: 100.0 mg/kg/injection, schedule: Q04DX003 (ip), vehicle: saline with Tween-80
[2] = dose: 100.0 mg/kg/injection, schedule: Q01DX009 (ip), vehicle: saline with Tween-80
[3] = dose: 200.0 mg/kg/injection, schedule: Q01DX009 (ip), vehicle: saline with Tween-80
[4] = dose: 400.0 mg/kg/injection, schedule: Q01DX009 (ip), vehicle: saline with Tween-80
[5] = dose: 50.0 mg/kg/injection, schedule: Q01DX009 (ip), vehicle: saline with Tween-80
[6] = dose: 200.0 mg/kg/injection, schedule: Q04DX003 (ip), vehicle: saline with Tween-80

Question: CN(C)c1ccc(/C=N/NC(N)=S)nc1 was tested. Which T/C (dose: 44.0 mg/kg/injection, schedule: Q04DX003 (ip), vehicle: saline with Tween-80) did it give?
Answer: 159 % of control

Question: What about the T/C (dose: 66.0 mg/kg/injection, schedule: Q04DX003 (ip), vehicle: saline with Tween-80) of the same molecule?
Answer: 150 % of control and 163 % of control

Question: What about the T/C [1] of the same molecule?
Answer: 177 % of control

Question: What about the T/C (dose: 150.0 mg/kg/injection, schedule: Q04DX003 (ip), vehicle: saline with Tween-80) of the same molecule?
Answer: 213 % of control

Question: How did the T/C (dose: 100.0 mg/kg/injection, schedule: Q01DX009 (ip), vehicle: saline) turn out when NC(=O)NOCC1NC(=O)C(CONC(N)=O)NC1=O (stereo not given) was run?
Answer: 116 % of control

Question: And the T/C (dose: 400.0 mg/kg/injection, schedule: Q01DX009 (ip), vehicle: saline)?
Answer: 105 % of control

Question: C=CC[n+]1ccccc1C(c1ccccc1)c1ccccc1 was tested. Which T/C (dose: 6.25 mg/kg/injection, schedule: Q01DX009 (ip), vehicle: saline with Tween-80) did it give?
Answer: 116 % of control

Question: And the T/C (dose: 12.5 mg/kg/injection, schedule: Q01DX009 (ip), vehicle: saline with Tween-80)?
Answer: 120 % of control

Question: What about the T/C (dose: 12.5 mg/kg/injection, schedule: Q04DX003 (ip), vehicle: saline with Tween-80) of the same molecule?
Answer: 91 % of control

Question: What does the source list for OC(CCl)C(O)C(O)C(O)CCl (stereo not given)?
Answer: T/C [2]: 100 % of control; T/C [3]: 113 % of control; T/C [4]: 100 % of control

Question: How did the T/C (dose: 50.0 mg/kg/injection, schedule: Q01DX009 (ip), vehicle: other) turn out when CCSc1ccc2c(cc1=O)[C@@H](NC1OC(CO)C(O)C(O)C1O)CCc1cc(OC)c(OC)c(OC)c1-2 (stereo not given in full) was run?
Answer: 106 % of control and 111 % of control

Question: And the T/C (dose: 100.0 mg/kg/injection, schedule: Q01DX009 (ip), vehicle: other)?
Answer: 106 % of control and 115 % of control

Question: What about the T/C (dose: 200.0 mg/kg/injection, schedule: Q01DX009 (ip), vehicle: other) of the same molecule?
Answer: 112 % of control

Question: Which T/C [1] does the source give for COc1cc(/C=C/c2ccc3ccccc3n2)cc(OC)c1OC here?
Answer: 100 % of control

Question: With CCOC(=O)c1ccc(C=O)[nH]1 as the molecule, how does the T/C [5] read?
Answer: 101 % of control

Question: And the T/C [2]?
Answer: 99 % of control

Question: What about the T/C [3] of the same molecule?
Answer: 99 % of control

Question: Which T/C (dose: 50.0 mg/kg/injection, schedule: Q04DX003 (ip), vehicle: saline sonified) does the source give for CC1(C)N=C(N)N=C(N)N1NC(=O)c1cccc(Cl)c1 here?
Answer: 109 % of control

Question: What about the T/C (dose: 100.0 mg/kg/injection, schedule: Q04DX003 (ip), vehicle: saline sonified) of the same molecule?
Answer: 109 % of control

Question: And the T/C (dose: 200.0 mg/kg/injection, schedule: Q04DX003 (ip), vehicle: saline sonified)?
Answer: 109 % of control

Question: Which results are given for CC[C@H]1CN2CCc3cc(OC)c(OC)cc3[C@@H]2C[C@@H]1C[C@H]1NCCc2c1[nH]c1ccc(O)cc21?
Answer: T/C (dose: 2.0 mg/kg/injection, schedule: Q04DX003 (ip), vehicle: saline + alcohol): 186 % of control; T/C (dose: 4.0 mg/kg/injection, schedule: Q04DX003 (ip), vehicle: saline + alcohol): 183 % of control

Question: With CC1(C)COC(C)(C)C(=O)O1 as the molecule, how does the T/C (dose: 50.0 mg/kg/injection, schedule: Q04DX003 (ip), vehicle: Klucel (hydroxypropylcellulose) (HPC)) read?
Answer: 95 % of control

Question: And the T/C (dose: 100.0 mg/kg/injection, schedule: Q04DX003 (ip), vehicle: Klucel (hydroxypropylcellulose) (HPC))?
Answer: 90 % of control

Question: And the T/C (dose: 200.0 mg/kg/injection, schedule: Q04DX003 (ip), vehicle: Klucel (hydroxypropylcellulose) (HPC))?
Answer: 100 % of control

Question: With C=CCCCC[P+](c1ccccc1)(c1ccccc1)c1ccccc1 as the molecule, how does the T/C (dose: 0.75 mg/kg/injection, schedule: Q01DX010 (ip), vehicle: saline) read?
Answer: 110 % of control

Question: And the T/C (dose: 1.5 mg/kg/injection, schedule: Q01DX010 (ip), vehicle: saline)?
Answer: 115 % of control and 120 % of control

Question: And the T/C (dose: 6.0 mg/kg/injection, schedule: Q01DX010 (ip), vehicle: saline)?
Answer: 152 % of control

Question: And the T/C (dose: 12.0 mg/kg/injection, schedule: Q01DX010 (ip), vehicle: saline)?
Answer: 110 % of control

Question: O=C1c2ccccc2C(=O)N1CC(O)COc1ccccc1 (stereo not given) was tested. Which T/C (dose: 75.0 mg/kg/injection, schedule: Q01DX001 (ip), vehicle: saline sonified) did it give?
Answer: 104 % of control

Question: What about the T/C (dose: 150.0 mg/kg/injection, schedule: Q01DX001 (ip), vehicle: saline sonified) of the same molecule?
Answer: 122 % of control

Question: And the T/C (dose: 300.0 mg/kg/injection, schedule: Q01DX001 (ip), vehicle: saline sonified)?
Answer: 104 % of control

Question: C=CCC1(CC)C(=O)NC(=O)NC1=O was tested. Which T/C (dose: 50.0 mg/kg/injection, schedule: Q04DX003 (ip), vehicle: saline with Tween-80) did it give?
Answer: 91 % of control

Question: And the T/C [1]?
Answer: 91 % of control

Question: What about the T/C [6] of the same molecule?
Answer: 91 % of control

Question: Which results are given for O=C(c1ccccc1Cl)c1cccc2ccccc12?
Answer: T/C (dose: 22.0 mg/kg/injection, schedule: Q01DX009 (ip), vehicle: Klucel (hydroxypropylcellulose) (HPC)): 100 % of control; T/C (dose: 35.0 mg/kg/injection, schedule: Q01DX009 (ip), vehicle: Klucel (hydroxypropylcellulose) (HPC)): 100 % of control; T/C (dose: 175.0 mg/kg/injection, schedule: Q04DX003 (ip), vehicle: Klucel (hydroxypropylcellulose) (HPC)): 100 % of control; T/C (dose: 400.0 mg/kg/injection, schedule: Q04DX003 (ip), vehicle: Klucel (hydroxypropylcellulose) (HPC)): 104 % of control; T/C (dose: 600.0 mg/kg/injection, schedule: Q04DX003 (ip), vehicle: Klucel (hydroxypropylcellulose) (HPC)): 104 % of control

Question: How did the T/C (dose: 100.0 mg/kg/injection, schedule: Q04DX003 (ip), vehicle: saline) turn out when NC(N)=N/N=C/C=N/N=C(N)N was run?
Answer: 100 % of control

Question: O=c1nc[nH]c(=O)[nH]1 was tested. Which T/C (dose: 25.0 mg/kg/injection, schedule: Q01DX009 (ip), vehicle: saline with Tween-80) did it give?
Answer: 97 % of control

Question: What about the T/C [5] of the same molecule?
Answer: 99 % of control

Question: And the T/C [2]?
Answer: 97 % of control

Question: What about the T/C [3] of the same molecule?
Answer: 104 % of control

Question: N/C(=N\N=C\c1ccc(-c2ccccc2)cc1)N[N+](=O)[O-] was tested. Which T/C (dose: 25.0 mg/kg/injection, schedule: Q01DX010 (ip), vehicle: carboxymethylcellulose (CMC)) did it give?
Answer: 100 % of control

Question: What about the T/C (dose: 50.0 mg/kg/injection, schedule: Q01DX010 (ip), vehicle: carboxymethylcellulose (CMC)) of the same molecule?
Answer: 100 % of control

Question: And the T/C (dose: 100.0 mg/kg/injection, schedule: Q01DX010 (ip), vehicle: carboxymethylcellulose (CMC))?
Answer: 100 % of control

Question: What about the T/C (dose: 200.0 mg/kg/injection, schedule: Q01DX010 (ip), vehicle: carboxymethylcellulose (CMC)) of the same molecule?
Answer: 100 % of control

Question: What does the source list for NN(C(=O)c1ccccc1)C1CCCCC1?
Answer: T/C (dose: 25.0 mg/kg/injection, schedule: Q01DX009 (ip), vehicle: alcohol): 91 % of control; T/C (dose: 50.0 mg/kg/injection, schedule: Q01DX009 (ip), vehicle: alcohol): 100 % of control; T/C (dose: 75.0 mg/kg/injection, schedule: Q04DX003 (ip), vehicle: Klucel (hydroxypropylcellulose) (HPC)): 110 % of control; T/C (dose: 115.0 mg/kg/injection, schedule: Q04DX003 (ip), vehicle: Klucel (hydroxypropylcellulose) (HPC)): 120 % of control; T/C (dose: 170.0 mg/kg/injection, schedule: Q04DX003 (ip), vehicle: Klucel (hydroxypropylcellulose) (HPC)): 100 % of control; T/C (dose: 255.0 mg/kg/injection, schedule: Q04DX003 (ip), vehicle: Klucel (hydroxypropylcellulose) (HPC)): 110 % of control; T/C (dose: 385.0 mg/kg/injection, schedule: Q04DX003 (ip), vehicle: Klucel (hydroxypropylcellulose) (HPC)): 100 % of control

Question: For COC(=O)C(Cc1cnc2nc(N)nc(N)c2n1)C(=O)OC, which T/C (dose: 1.56 mg/kg/injection, schedule: Q01DX009 (ip), vehicle: water) is on record?
Answer: 100 % of control

Question: What about the T/C (dose: 3.13 mg/kg/injection, schedule: Q01DX009 (ip), vehicle: water) of the same molecule?
Answer: 90 % of control

Question: And the T/C (dose: 6.25 mg/kg/injection, schedule: Q01DX009 (ip), vehicle: water)?
Answer: 100 % of control

Question: What about the T/C (dose: 12.5 mg/kg/injection, schedule: Q01DX009 (ip), vehicle: water) of the same molecule?
Answer: 100 % of control

Question: And the T/C (dose: 25.0 mg/kg/injection, schedule: Q01DX009 (ip), vehicle: water)?
Answer: 111 % of control

Question: What does the source list for Cc1ccc(Cl)c([N+](=O)[O-])c1N?
Answer: T/C [5]: 104 % of control; T/C [2]: 87 % of control; T/C [3]: 91 % of control

Question: For Cn1cnc([N+](=O)[O-])c1Sc1ncnc2c1ncn2C1OC(CO)C(O)C1O (stereo not given), which T/C (dose: 50.0 mg/kg/injection, schedule: Q01DX009 (ip), vehicle: Klucel (hydroxypropylcellulose) (HPC)) is on record?
Answer: 113 % of control

Question: What about the T/C (dose: 100.0 mg/kg/injection, schedule: Q01DX009 (ip), vehicle: Klucel (hydroxypropylcellulose) (HPC)) of the same molecule?
Answer: 154 % of control

Question: What about the T/C (dose: 200.0 mg/kg/injection, schedule: Q01DX009 (ip), vehicle: Klucel (hydroxypropylcellulose) (HPC)) of the same molecule?
Answer: 122 % of control

Question: O=c1n(CCCl)c(=O)n(CCCl)c(=O)n1CCCl was tested. Which T/C [2] did it give?
Answer: 110 % of control

Question: What about the T/C [1] of the same molecule?
Answer: 100 % of control

Question: What about the T/C [3] of the same molecule?
Answer: 110 % of control

Question: What about the T/C [6] of the same molecule?
Answer: 104 % of control

Question: And the T/C [4]?
Answer: 100 % of control

Question: What about the T/C (dose: 400.0 mg/kg/injection, schedule: Q04DX003 (ip), vehicle: saline with Tween-80) of the same molecule?
Answer: 104 % of control
